# Reference: US11981642B1, “4-(4,5-bis(4-bromophenyl)-2-(4-chlorophenyl)-1H-imidazol-1-yl)butanoic acid as an antimicrobial compound” (priority 2023, dated 2024)
# Test system: different microbes (Bacillus cereus, Staphylococcus aureus, Pseudomonas aeruginosa, Escherichia coli, Aspergillus flavus, Chrysosporium keratinophilum)
# Test: Antimicrobial testing, agar plate disc-diffusion method
# Type: cell-based
# Details: screened against gram-positive and gram-negative bacteria and fungi; result in words only, no inhibition zones printed
# Method: The agar plate disc-diffusion method was applied. Sterilized filter papers (6 mm in diameter) were wetted with 10 μL of a solution of 4-(4,5-bis(4-bromophenyl)-2-(4-chlorophenyl)-1H-imidazol-1-yl)butanoic acid (V) to be tested, containing 10 mg/mL in DMSO, and the discs were allowed to air dry. The discs were then placed onto the surface of agar plates (nutrient agar for bacteria and Sabouraud's dextrose agar for fungi) seeded with the test organism. Each plate contained 15 mL of the agar medium, previously seeded with 0.2 mL of the broth culture of each organism pregrown for 18 hours. The plates were incubated at 37° C. for 48 hours, and 72 hours for fungi. The inhibition zones was measured in mm. Discs impregnated with DMSO were used as a control, and its inhibition zone was subtracted from the tested compound actual inhibition zone.
compound,measurement,value
"O=C(O)CCCn1c(-c2ccc(Cl)cc2)nc(-c2ccc(Br)cc2)c1-c1ccc(Br)cc1 [V, 4-(4,5-bis(4-bromophenyl)-2-(4-chlorophenyl)-1H-imidazol-1-yl)butanoic acid]",antimicrobial activities against different microbes,excellent antimicrobial activities
